Like-named read-outs stand apart in the source and are kept apart here.
Key:
[1] = Binding to proteins in KHYG-1 cell media (RPMI with 0.1% BSA) by equilibrium dialysis; type: in vitro ADME; details: bovine, pH 7.4, read-out: free fraction in the KHYG-1 cell media
[2] = target: T1, perforin (Mus musculus, UniProt P10820); experiment: PK/PD relationship (sigmoid Emax model, regression analysis); details: in vivo mouse model
T1 construct: endogenous in cells; host or cells: recipient cytotoxic lymphocytes (NK/CTL) of wild-type C57BL/6 mice, in vivo
T1 sequence (P10820 21-554): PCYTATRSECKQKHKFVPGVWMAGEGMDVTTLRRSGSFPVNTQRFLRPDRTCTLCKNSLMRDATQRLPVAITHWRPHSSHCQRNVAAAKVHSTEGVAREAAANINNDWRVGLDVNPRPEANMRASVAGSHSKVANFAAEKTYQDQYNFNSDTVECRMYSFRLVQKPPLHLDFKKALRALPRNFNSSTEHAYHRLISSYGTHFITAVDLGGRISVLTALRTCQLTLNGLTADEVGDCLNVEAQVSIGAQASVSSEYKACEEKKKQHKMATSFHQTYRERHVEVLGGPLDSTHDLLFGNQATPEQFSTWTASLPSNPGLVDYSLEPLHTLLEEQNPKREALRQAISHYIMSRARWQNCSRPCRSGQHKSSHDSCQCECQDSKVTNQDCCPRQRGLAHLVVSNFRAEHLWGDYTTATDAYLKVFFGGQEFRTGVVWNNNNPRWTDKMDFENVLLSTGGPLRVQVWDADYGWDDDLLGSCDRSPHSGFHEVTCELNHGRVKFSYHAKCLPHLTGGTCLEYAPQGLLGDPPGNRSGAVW
Protocol: The relationship between efficacy (% perforin inhibition in peripheral blood and spleen) and pharmacokinetics was determined for different pharmacokinetic properties (Figure 5A,B). […] Simply maintaining the concentrations above a minimal level without reaching very high levels was not sufficient for perforin inhibition, as exemplified by three doses at 80 mg/kg.
The normality of in vivo perforin inhibition data was checked by Shapiro–Wilk and D’Agostino–Pearson normality tests. Statistical tests were performed by one-way ANOVA with multiple comparisons made to the vehicle-treated group and corrected using Dunnett’s post-test analysis. A comparison of measured and simulated plasma concentrations was analyzed by linear regression. Efficacy data were correlated to pharmacokinetic data using a sigmoid Emax model and regression analysis. All statistical analyses were conducted using Prism v8 or 9.

[3] = parameters: method as in PMID 28582670; AUC: concentration or dose not given beside the values; details: mouse plasma; cited from earlier work
[4] = One-compartment pharmacokinetic model simulations; parameters: species or system mouse
Protocol: For determination of plasma concentrations of 1, C57BL/6 mice were treated with a single dose of 1 at four different dose levels (160, 120, 80, and 10 mg/kg) and blood samples were collected at multiple timepoints after dosing. Overall, the pharmacokinetics followed a dose-dependent relationship that was close to linear (Figure 3A). […] To confirm the accuracy of the simulations, C57BL/6 mice were treated intraperitoneally with 80, 120, or 160 mg/kg dose of 1 and the resulting plasma concentrations were evaluated at multiple time points within a 24 h period after one (0 h), two (0, 18 h) or three (0, 9 h, 18 h) doses.
Given the high concentrations required, there is potential for saturation of plasma protein binding to occur, where small dose increments could cause large increases in unbound concentrations.[35]
(§1) Test samples were diluted up to 100-fold in blank plasma as necessary and quantitated against a calibration curve of known analyte concentrations ranging from 3 nM to 30 μM in an appropriate matrix and quality controls at 0.03, 0.3, 3, and 30 μM. Pharmacokinetic parameters were evaluated using noncompartmental analysis and pharmacokinetic simulations using one-compartment analysis on Phoenix WinNonlin version 6.2 (Certara, Princeton, NJ). Multiple-dose simulations were generated from parameters derived from single-dose simulations.

[5] = Mouse plasma pharmacokinetics; type: in vivo; details: for AUC(0-t): read-out: AUC0–24
Protocol: Male C57BL/6 mice (18–25 g) were supplied and housed under controlled temperature and humidity at the Vernon Jansen Unit of the University of Auckland. The mice had access to a pelleted diet and water ad libitum. All animal experimentation followed protocols approved by the University of Auckland Animal Ethics Committee (approval #001781). Dosing solutions were prepared in 20% hydroxypropyl-β-cyclodextrin (Sigma-Aldrich). The mice received one to three doses by intraperitoneal route and were euthanised at predetermined time points (n = 3 mice per time point at 0.083, 0.25, 0.5, 1, 2, 4, 6, and 24 h for 10 mg/kg 1 and 7; 0.5, 1, 2, 6, and 24 h for 80 and 160 mg/kg 1; and 1, 6, and 24 h for 120 mg/kg 1). Blood samples (∼300 μL) were obtained through cardiac bleed and collected in ice-cold K2-EDTA tubes (BD, Franklin Lakes, NJ). Plasma was separated by centrifugation at 6500 rpm for 5 min and stored at −80 °C. On the day of analysis, plasma samples were thawed on ice and the analytes were extracted by mixing 10 μL of aliquots with four volumes of ice-cold acetonitrile/methanol (1:1 v/v) containing internal standard. The samples were kept on ice for 10 min to ensure complete protein precipitation, vortexed for 2 min, and centrifuged at 13 000 rpm for 5 min at room temperature. The clear supernatant was then diluted (1:1 v/v) with 40 μL of 0.01% formic acid in Milli-Q water prior to analysis by LC-MS/MS.
Compound concentration in biological matrices was measured by LC-MS/MS using a 6410b triple-quadrupole mass spectrometer (Agilent, Santa Clara) equipped with a multimode ionization source. The optimized mass detector conditions, namely, ionization polarity, precursor product ions, fragmentor voltage, and collision energy, were manually determined by infusing a 5 μM solution of the pure compound into the ion source. Chromatographic separation was achieved using a Zorbax SB-C18, 50 × 2.1 mm^2, 5 μm column (Agilent), and an Agilent 1100 series HPLC system. The mobile phase used was (A) 0.01% formic acid in Milli-Q water and (B) 80% acetonitrile containing 0.01% formic acid in ultrapure water at a flow rate of 0.6 mL/min. A gradient elution was used over 5 min, and the flow rate was maintained at 0.6 mL/min throughout the gradient. The column oven temperature and the autosampler temperature were set to 35 and 4 °C, respectively. […] The instrument multimode source parameters were set as follows: gas temperature, 325 °C; vaporizer, 250 °C; gas flow, 5 L/min; and nebulizer, 45 psi. The ion spray voltage was set at 3000 V. Detection of the compounds was carried out in multiple reaction monitoring mode by monitoring the m/z transitions of precursor to selective product ion. For each compound, fragmentor voltage and collision energy were optimized to achieve maximum abundance. Quadrupoles Q1 and Q3 were set to unit resolution.
as §1

[6] = male, mouse, ip, 80 mg/kg single i.p. dose, C57BL/6 mice, plasma
[7] = male, mouse, ip, 120 mg/kg single i.p. dose, C57BL/6 mice, plasma
[8] = male, mouse, ip, 160 mg/kg single i.p. dose, C57BL/6 mice, plasma
[9] = male, C57BL/6, ip, mouse plasma, 10 mg/kg intraperitoneal

CN1Cc2cc(-c3ccc(-c4cncc(NS(=O)(=O)c5ccccc5[N+](=O)[O-])c4)s3)ccc2C1=O [Compound 1, N-{5-[5-(2-methyl-1-oxo-2,3-dihydro-1H-isoindol-5-yl)-2-thienyl]-3-pyridinyl}-2-nitrobenzenesulfonamide]
fraction unbound at 6 h, 10 μM [1]: 0.144 | total plasma concentration to be continuously maintained for optimal perforin inhibition [2]: > 900 µM | AUC [3]: 415 µM·h | Cmax [3]: 105 µM | duration that plasma concentration achieved 350 μM ([4]; 80 mg/kg three-dose schedule): 14.9 h | duration that plasma concentration achieved 350 μM ([4]; two doses of 120 mg/kg): 12.0 h | duration that plasma concentration achieved 350 μM ([4]; two doses of 160 mg/kg): 13.4 h | Cmax ([5]; 10 mg/kg single i.p. dose, C57BL/6 mice, plasma): 105 µM | half-life ([5]; male, C57BL/6, mouse, plasma, intraperitoneal, across the dose levels 160, 120, 80 and 10 mg/kg, read-out: elimination half-life): 2.4 to 3.4 h | AUC(0-t) ([5]; male, mouse, ip, 10 mg/kg single i.p. dose, C57BL/6 mice, plasma): 413 µM·h | half-life ([5]; male, mouse, ip, 10 mg/kg single i.p. dose, C57BL/6 mice, plasma, read-out: T1/2 (converted)): 2.38 h | Cmax [5, 6]: 782 µM | AUC(0-t) [5, 6]: 5440 µM·h | half-life ([5]; male, mouse, ip, 80 mg/kg single i.p. dose, C57BL/6 mice, plasma, read-out: T1/2 (converted)): 2.85 h | Cmax [5, 7]: 1030 µM | AUC(0-t) [5, 7]: 7320 µM·h | half-life ([5]; male, mouse, ip, 120 mg/kg single i.p. dose, C57BL/6 mice, plasma, read-out: T1/2 (converted)): 2.85 h | Cmax [5, 8]: 1190 µM | AUC(0-t) [5, 8]: 8940 µM·h | half-life ([5]; male, mouse, ip, 160 mg/kg single i.p. dose, C57BL/6 mice, plasma, read-out: T1/2 (converted)): 3.36 h

O=C1NCc2ccc(-c3ccc(-c4cncc(NS(=O)(=O)c5ccc(F)cc5F)c4)s3)cc21 [Compound 7, 2,4-difluoro-N-{5-[5-(3-oxo-2,3-dihydro-1H-isoindol-5-yl)-2-thienyl]-3-pyridinyl}benzenesulfonamide]
AUC [5, 9]: 1220 µM·h | Cmax [5, 9]: 235 µM | half-life ([5]; male, C57BL/6, ip, mouse plasma, 10 mg/kg intraperitoneal, read-out: T1/2 (converted)): 4.1 h

— publication PMC9194936, “Preclinical Activity and Pharmacokinetic/Pharmacodynamic Relationship for a Series of Novel Benzenesulfonamide Perforin Inhibitors” (ACS Pharmacology & Translational Science, 2022)
